Experiments:
Test in all cases: relative viability (nuclei count vs DMSO), 5 days (fraction); higher = more cells survive
Dasatinib + Vorinostat = compound: Cc1nc(Nc2ncc(C(=O)Nc3c(C)cccc3Cl)s2)cc(N2CCN(CCO)CC2)n1 [Dasatinib] + O=C(CCCCCCC(=O)Nc1ccccc1)NO [Vorinostat] (partner 1 µM)
Procedure, shortened: (§1)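 Five library-drug doses in √10 steps were combined with a fixed anchor-drug dose, or a single drug was given alone, by pin tool to lung cancer cell lines in 1536-well plates the day after seeding. Nuclei were stained and counted after 5 days. Relative viability is the nuclei count in treated wells over that in vehicle wells, taken as the median of duplicate plates.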

XMD13-2 + Trametinib = compound: C1CC1C(=O)NC2=NNC3=C2C=CC(=C3)C4=CC(=CC=C4)C(=O)NC5CC5 [XMD13-2] + CC(=O)Nc1cccc(-n2c(=O)n(C3CC3)c(=O)c3c(Nc4ccc(I)cc4F)n(C)c(=O)c(C)c32)c1 [Trametinib] (partner 0.02 µM)
Procedure, shortened: as §1

Dasatinib + Foretinib = compound: Cc1nc(Nc2ncc(C(=O)Nc3c(C)cccc3Cl)s2)cc(N2CCN(CCO)CC2)n1 [Dasatinib] + COc1cc2c(Oc3ccc(NC(=O)C4(C(=O)Nc5ccc(F)cc5)CC4)cc3F)ccnc2cc1OCCCN1CCOCC1 [Foretinib] (partner 0.25 µM)
Procedure, shortened: as §1

ALW-II-49-7 + Linsitinib = compound: Cc1ccc(C(=O)Nc2cccc(C(F)(F)F)c2)cc1Nc1cncc(C(N)=O)c1 [ALW-II-49-7] + C[C@]1(O)C[C@@H](c2nc(-c3ccc4ccc(-c5ccccc5)nc4c3)c3c(N)nccn32)C1 [Linsitinib] (partner 1 µM)
Procedure, shortened: as §1

Row | Cell Line | relative viability (Dasatinib + Vorinostat; first compound 0.005 µM) | relative viability (Dasatinib + Vorinostat; first compound 0.01581 µM) | relative viability (Dasatinib + Vorinostat; first compound 0.05 µM) | relative viability (Dasatinib + Vorinostat; first compound 0.1581 µM) | relative viability (Dasatinib + Vorinostat; first compound 0.5 µM) | relative viability (XMD13-2 + Trametinib; first compound 0.05 µM) | relative viability (XMD13-2 + Trametinib; first compound 0.1581 µM) | relative viability (XMD13-2 + Trametinib; first compound 0.5 µM) | relative viability (XMD13-2 + Trametinib; first compound 1.581 µM) | relative viability (XMD13-2 + Trametinib; first compound 5 µM) | relative viability (Dasatinib + Foretinib; first compound 0.005 µM) | relative viability (Dasatinib + Foretinib; first compound 0.01581 µM) | relative viability (Dasatinib + Foretinib; first compound 0.05 µM) | relative viability (Dasatinib + Foretinib; first compound 0.1581 µM) | relative viability (Dasatinib + Foretinib; first compound 0.5 µM) | relative viability (ALW-II-49-7 + Linsitinib; first compound 0.08 µM) | relative viability (ALW-II-49-7 + Linsitinib; first compound 0.253 µM) | relative viability (ALW-II-49-7 + Linsitinib; first compound 0.8 µM) | relative viability (ALW-II-49-7 + Linsitinib; first compound 2.53 µM) | relative viability (ALW-II-49-7 + Linsitinib; first compound 8 µM)
1 | EPLC-272H | 0.539 | 0.401 | 0.335 | 0.276 | 0.162 | 0.289 | 0.311 | 0.301 | 0.257 | 0.271 | 0.769 | 0.631 | 0.634 | 0.214 | 0.127 | 0.954 | 0.922 | 1.15 | 1.26 | 1.18
2 | LXF-289 | 0.754 | 0.779 | 0.762 | 0.495 | 0.254 | 0.672 | 0.73 | 0.731 | 0.642 | 0.731 | 1.01 | 0.983 | 0.914 | 0.513 | 0.125 | 0.935 | 0.958 | 1.04 | 1.1 | 1.09
3 | COR-L23 | 0.419 | 0.342 | 0.323 | 0.237 | 0.24 | 0.611 | 0.591 | 0.684 | 0.552 | 0.626 | 0.915 | 0.904 | 0.829 | 0.535 | 0.549 | 0.947 | 0.829 | 0.769 | 0.953 | 0.957
4 | RERF-LC-KJ | 0.667 | 0.602 | 0.585 | 0.491 | 0.416 | 0.984 | 0.83 | 0.889 | 0.8 | 0.782 | 0.888 | 0.831 | 0.989 | 0.824 | 0.779 | 0.884 | 0.898 | 0.873 | 0.905 | 0.888
5 | NCI-H1755 | 0.655 | 0.718 | 0.568 | 0.421 | 0.374 | 0.821 | 0.714 | 0.722 | 0.754 | 0.697 | 0.778 | 0.706 | 0.617 | 0.463 | 0.185 | 1.05 | 1.14 | 1.01 | 0.978 | 0.855
6 | PC-14 | 0.653 | 0.699 | 0.562 | 0.318 | 0.0563 | 0.892 | 0.713 | 0.788 | 0.723 | 0.983 | 0.981 | 0.948 | 0.912 | 0.712 | 0.335 | 0.933 | 0.821 | 0.933 | 0.979 | 0.94
7 | NCI-H322M | 0.668 | 0.535 | 0.426 | 0.311 | 0.258 | 0.396 | 0.51 | 0.446 | – | 0.565 | 0.909 | 0.75 | 0.485 | 0.285 | 0.233 | 0.846 | 0.902 | 0.909 | 0.836 | 0.673
8 | NCI-H1666 | 1.2 | 1.06 | 1.23 | 1.07 | 0.761 | 0.745 | 0.937 | 0.89 | 0.799 | 0.987 | 1.12 | 0.989 | 1.07 | 0.862 | 0.425 | 0.81 | 0.794 | 0.81 | 0.842 | 0.781
9 | A-427 | 0.831 | 0.766 | 0.793 | 0.517 | 0.495 | 0.795 | 0.649 | 0.755 | – | 0.581 | 0.971 | 1.04 | 0.974 | 0.694 | 0.599 | 1.17 | 1.15 | 1.15 | 1.12 | 1.18
10 | NCI-H1651 | 0.546 | 0.433 | 0.481 | 0.465 | 0.359 | 0.909 | 0.843 | 0.789 | 0.869 | 0.834 | 0.81 | 0.666 | 0.673 | 0.646 | 0.445 | 0.928 | 1.02 | 0.973 | 0.884 | 0.996
11 | NCI-H1793 | 0.56 | 0.571 | 0.46 | 0.357 | 0.344 | 0.524 | 0.442 | 0.407 | 0.432 | 0.444 | 0.553 | 0.528 | 0.374 | 0.337 | 0.359 | 0.864 | 0.723 | 0.84 | 0.868 | 0.863
12 | NCI-H520 | 0.677 | 0.476 | 0.418 | 0.227 | 0.229 | 0.7 | 0.7 | 0.723 | 0.563 | 0.396 | 0.631 | 0.427 | 0.36 | 0.175 | 0.175 | 0.779 | 1.04 | – | 1.16 | 0.951
13 | 201T | 0.912 | 0.723 | 0.792 | 0.649 | 0.346 | 0.712 | 0.748 | 0.736 | 0.703 | 0.783 | 0.945 | 0.883 | 0.816 | 0.531 | 0.346 | 1.03 | 1.06 | 1.02 | 0.983 | 1
14 | NCI-H460 | 0.659 | 0.619 | 0.877 | 0.475 | 0.315 | 0.288 | 0.13 | 0.209 | 0.195 | 0.167 | 1.04 | 0.904 | 0.808 | 0.716 | 0.746 | 0.464 | 0.667 | 0.766 | 0.566 | 0.566
